Measurements as given in US11912699B2, “Tau-protein targeting compounds and associated” (Arvinas Operations, Inc., priority 2019, dated 2024).

Target: T1, Tau P301L (Homo sapiens, UniProt P10636, P618L)
T1 construct: expressed in transfected cells
Assay: In vitro tau degradation assay in CHOK1 Tau P301L cells (sarkosyl insoluble tau, WES)
Format: cell-based
Details: CHO-K1; CHOK1 Tau P301L cells; remaining tau in sarkosyl insoluble pellet; 48 hours with test compound at 1 μM, doxycycline removed for last 24 hours; relative to DMSO doxycycline control; read-out: Tau Protein Degradation effect at 1 μM
In short: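 T-Rex CHOK1 clone D1 with doxycycline-inducible (1 μg/ml) Tau P301L treated 48 h with compound at 1 μM, doxycycline removed for the final 24 h. Sarkosyl-insoluble tau quantified by WES capillary electrophoresis with Tau1 antibody, expressed relative to DMSO doxycycline control and binned as ≤50% or >50% remaining.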

T1 sequence (P10636 1-441 isoform P10636-8 P301L): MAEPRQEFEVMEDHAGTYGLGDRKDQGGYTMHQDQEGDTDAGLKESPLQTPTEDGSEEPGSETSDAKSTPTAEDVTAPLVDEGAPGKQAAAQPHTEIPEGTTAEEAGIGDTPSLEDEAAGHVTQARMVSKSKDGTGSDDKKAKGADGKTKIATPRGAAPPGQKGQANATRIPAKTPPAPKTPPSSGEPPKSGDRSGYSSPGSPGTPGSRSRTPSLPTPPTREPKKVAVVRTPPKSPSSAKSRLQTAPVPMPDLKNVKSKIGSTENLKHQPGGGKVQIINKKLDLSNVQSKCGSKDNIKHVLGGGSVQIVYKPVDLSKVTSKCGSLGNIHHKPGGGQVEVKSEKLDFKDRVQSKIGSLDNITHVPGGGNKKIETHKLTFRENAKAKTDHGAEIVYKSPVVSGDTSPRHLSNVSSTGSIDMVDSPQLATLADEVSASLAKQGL

Compared with `O=C1CCC(N2C(=O)c3ccc(N4CCC(CN5CCC(O[C@H]6C[C@H](Oc7ccc8c9cnccc9n(C(F)F)c8c7)C6)CC5)CC4)cc3C2=O)C(=O)N1` (some centres unmarked) [Compound 605, 5-(4-((4-((1r,3r)-3-((5-(difluoromethyl)-5H-pyrido[4,3-b]indol-7-yl)oxy)cyclobutoxy)piperidin-1-yl)methyl)piperidin-1-yl)-2-(2,6-dioxopiperidin-3-yl)isoindoline-1,3-dione], `O=C1CCC(N2C(=O)c3ccc(N4CCN(CC5CC6(CCN(c7ncc(-c8ccc9c%10cnccc%10n(C(F)F)c9c8)cc7F)CC6)C5)CC4)cc3C2=O)C(=O)N1` (centres unmarked) [Compound 614, 5-(4-((7-(5-(5-(difluoromethyl)-5H-pyrido[4,3-b]indol-7-yl)-3-fluoropyridin-2-yl)-7-azaspiro[3.5]nonan-2-yl)methyl)piperazin-1-yl)-2-(2,6-dioxopiperidin-3-yl)isindoline-1,3-dione] is higher in remaining activity at 1 µM: < 50% for the first, > 50% for the second.

`O=C1CCC(N2Cc3nc(N4CCN(CCC5CCN(c6ncc(-c7ccc8c9cnccc9n(C(F)F)c8c7)cc6F)CC5)CC4)ccc3C2=O)C(=O)N1` (centres unmarked) [Compound 607, 3-(2-(4-(2-(1-(5-(5-(difluoromethyl)-5H-pyrido[4,3-b]indol-7-yl)-3-fluoropyridin-2-yl)piperidin-4-yl)ethyl)piperazin-1-yl)-5-oxo-5,7-dihydro-6H-pyrrolo[3,4-b]pyridin-6-yl)piperidine-2,6-dione] and `O=C1CCC(N2C(=O)c3cc(F)c(N4CCN(CC5CCN(c6ncc(-c7ccc8c9cnccc9n(C(F)F)c8c7)cc6F)CC5)CC4)cc3C2=O)C(=O)N1` (centres unmarked) [Compound 608, 5-(4-((1-(5-(5-(difluoromethyl)-5H-pyrido[4,3-b]indol-7-yl)-3-fluoropyridin-2-yl)piperidin-4-yl)methyl)piperazin-1-yl)-2-(2,6-dioxopiperidin-3-yl)-6-fluoroisoindoline-1,3-dione] cannot be ordered by remaining activity at 1 µM: > 50% for the first, > 50% for the second.

Going from `CC(C)(C1CCN(c2ncc(-c3ccc4c5cnccc5n(C(F)F)c4c3)cc2F)CC1)N1CCN(c2ccc3c(c2)C(=O)N(C2CCC(=O)NC2=O)C3=O)CC1` (centres unmarked) [Compound 609, 5-(4-(2-(1-(5-(5-(difluoromethyl)-5H-pyrido[4,3-b]indol-7-yl)-3-fluoropyridin-2-yl)piperidin-4-yl)propan-2-yl)piperazin-1-yl)-2-(2,6-dioxopiperidin-3-yl)isoindoline-1,3-dione] to `O=C1CCC(N2C(=O)c3ccc(N4CCN(C5CC6(CCN(c7ncc(-c8ccc9c%10cnccc%10n(C(F)F)c9c8)cc7F)CC6)C5)CC4)cc3C2=O)C(=O)N1` (centres unmarked) [Compound 613, 5-(4-(7-(5-(5-(difluoromethyl)-5H-pyrido[4,3-b]indol-7-yl)-3-fluoropyridin-2-yl)-7-azaspiro[3.5]nonan-2-yl)piperazin-1-yl)-2-(2,6-dioxopiperidin-3-yl)isoindoline-1,3-dione], the remaining activity at 1 µM rises from < 50% to > 50%.

`O=C1CCC(N2C(=O)c3ccc(N4CCN(CCOCCN5CCCc6cc(-c7ccc8c9cnccc9n(C(F)F)c8c7)cc(F)c65)CC4)cc3C2=O)C(=O)N1` (centres unmarked) [Compound 611, 5-(4-(2-(2-(6-(5-(difluoromethyl)-5H-pyrido[4,3-b]indol-7-yl)-8-fluoro-3,4-dihydroquinolin-1(2H)-yl)ethoxy)ethyl)piperazin-1-yl)-2-(2,6-dioxopiperidin-3-yl)isoindoline-1,3-dione] and `COc1ccc2nc(/C=C/C=C/c3ccc(OCCOCCOc4ccc5c(c4)C(=O)N(C4CCC(=O)NC4=O)C5=O)nc3)sc2c1` (centres unmarked) [Compound 626, 2-(2,6-dioxopiperidin-3-yl)-5-(2-(2-((5-((1E,3E)-4-(6-methoxybenzo[d]thiazol-2-yl)buta-1,3-dien-1-yl)pyridin-2-yl)oxy)ethoxy)ethoxy) isoindoline-1,3-dione] cannot be ordered by remaining activity at 1 µM: < 50% for the first, < 50% for the second.
